# Measured values published in the supplement of paper PMC4862054.
# Tested on: CAL-85-1
# Test: normalised viability (% of control), CellTiter-Blue; higher = more viable cells (about 100 = DMSO control)
# Details: 30 nM; incubation time: 72 h
# Outline: (§1)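 Vehicle (100) and a positive kill control (0) anchored the normalisation of each plate, and Z'-factor was used for quality control. Breast cancer cell lines in 20 µl suspension were incubated 72 h over compound in 5 µl medium in 384-well plates, followed by CellTiter-Blue at 560/590 nm. The value is normalised viability at a single listed concentration of the series.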
row,Structure (SMILES),normalised viability [%]
1,COc1cc2c(Oc3ccc4[nH]c(C)cc4c3F)ncnc2cc1OCCCN1CCCC1 [Cediranib],90.4
2,C=CC(=O)N1CCC[C@@H](n2nc(-c3ccc(Oc4ccccc4)cc3)c3c(N)ncnc32)C1,96
3,Cc1cnc(NC(=O)Nc2cc(Br)c(C)cc2OC[C@@H]2CNCCO2)cn1,92

# Same assay, conditions: 300 nM; incubation time: 72 h
row,Structure (SMILES),normalised viability [%]
1,Nc1nc(F)nc2c1ncn2[C@@H]1O[C@H](CO)[C@@H](O)[C@@H]1O [Fludarabine],90.4
2,O=C(O)C1(C(=O)O)CCC1.[NH2-].[NH2-].[Pt+2] [Carboplatin],86.1
3,N#Cc1ccc(C(c2ccc(C#N)cc2)n2cncn2)cc1 [Letrozole],86.4
4,C1CN1c1nc(N2CC2)nc(N2CC2)n1 [Triethylenemelamine],99
5,CCCS(=O)(=O)Nc1ccc(F)c(C(=O)c2c[nH]c3ncc(-c4ccc(Cl)cc4)cc23)c1F [Vemurafenib],87.4
6,O=C(O)C(=O)O.[NH-][C@@H]1CCCC[C@H]1[NH-].[Pt+2] [Oxaliplatin],96.9
7,Cc1ccc(-c2cc(C(F)(F)F)nn2-c2ccc(S(N)(=O)=O)cc2)cc1 [Celecoxib],70.2
8,NCCCNCCSP(=O)(O)O [Amifostine],93.8
9,C[C@H]1C[C@@H]2[C@H]([C@@H](O)C[C@@]3(C)[C@H]2CC[C@]3(O)C(=O)CO)[C@@]2(C)C=CC(=O)C=C12 [Methylprednisolone],112
10,CCc1cncnc1N1CCN(Cc2nc3ccc(C(F)(F)F)cc3[nH]2)CC1,89.8
11,Oc1ncc(N(CCCl)CCCl)c(O)n1 [Uracil mustard],93.1
12,CC1=C(/C=C/C(C)=C/C=C/C(C)=C/C(=O)O)C(C)(C)CCC1 [Tretinoin],96.6

# Tested on: CAL-148
# Test: as above
# Details: 30 nM; incubation time: 72 h
# Outline: as §1
row,Structure (SMILES),normalised viability [%]
1,COc1cc2c(Oc3ccc4[nH]c(C)cc4c3F)ncnc2cc1OCCCN1CCCC1 [Cediranib],103
2,C=CC(=O)N1CCC[C@@H](n2nc(-c3ccc(Oc4ccccc4)cc3)c3c(N)ncnc32)C1,44.8
3,Cc1cnc(NC(=O)Nc2cc(Br)c(C)cc2OC[C@@H]2CNCCO2)cn1,91.7

# Same assay, conditions: 300 nM; incubation time: 72 h
row,Structure (SMILES),normalised viability [%]
1,Nc1nc(F)nc2c1ncn2[C@@H]1O[C@H](CO)[C@@H](O)[C@@H]1O [Fludarabine],72.2
2,O=C(O)C1(C(=O)O)CCC1.[NH2-].[NH2-].[Pt+2] [Carboplatin],106
3,N#Cc1ccc(C(c2ccc(C#N)cc2)n2cncn2)cc1 [Letrozole],101
4,C1CN1c1nc(N2CC2)nc(N2CC2)n1 [Triethylenemelamine],118
5,CCCS(=O)(=O)Nc1ccc(F)c(C(=O)c2c[nH]c3ncc(-c4ccc(Cl)cc4)cc23)c1F [Vemurafenib],90.3
6,O=C(O)C(=O)O.[NH-][C@@H]1CCCC[C@H]1[NH-].[Pt+2] [Oxaliplatin],121
7,Cc1ccc(-c2cc(C(F)(F)F)nn2-c2ccc(S(N)(=O)=O)cc2)cc1 [Celecoxib],88
8,NCCCNCCSP(=O)(O)O [Amifostine],95.2
9,C[C@H]1C[C@@H]2[C@H]([C@@H](O)C[C@@]3(C)[C@H]2CC[C@]3(O)C(=O)CO)[C@@]2(C)C=CC(=O)C=C12 [Methylprednisolone],104
10,CCc1cncnc1N1CCN(Cc2nc3ccc(C(F)(F)F)cc3[nH]2)CC1,107
11,Oc1ncc(N(CCCl)CCCl)c(O)n1 [Uracil mustard],89.7
12,CC1=C(/C=C/C(C)=C/C=C/C(C)=C/C(=O)O)C(C)(C)CCC1 [Tretinoin],74

# Tested on: MDA-MB-453
# Test: as above
# Details: 30 nM; incubation time: 72 h
# Outline: as §1
row,Structure (SMILES),normalised viability [%]
1,COc1cc2c(Oc3ccc4[nH]c(C)cc4c3F)ncnc2cc1OCCCN1CCCC1 [Cediranib],75.9
2,C=CC(=O)N1CCC[C@@H](n2nc(-c3ccc(Oc4ccccc4)cc3)c3c(N)ncnc32)C1,50.2
3,Cc1cnc(NC(=O)Nc2cc(Br)c(C)cc2OC[C@@H]2CNCCO2)cn1,94.3

# Same assay, conditions: 300 nM; incubation time: 72 h
row,Structure (SMILES),normalised viability [%]
1,Nc1nc(F)nc2c1ncn2[C@@H]1O[C@H](CO)[C@@H](O)[C@@H]1O [Fludarabine],100
2,O=C(O)C1(C(=O)O)CCC1.[NH2-].[NH2-].[Pt+2] [Carboplatin],107
3,N#Cc1ccc(C(c2ccc(C#N)cc2)n2cncn2)cc1 [Letrozole],100
4,C1CN1c1nc(N2CC2)nc(N2CC2)n1 [Triethylenemelamine],108
5,CCCS(=O)(=O)Nc1ccc(F)c(C(=O)c2c[nH]c3ncc(-c4ccc(Cl)cc4)cc23)c1F [Vemurafenib],88.7
6,O=C(O)C(=O)O.[NH-][C@@H]1CCCC[C@H]1[NH-].[Pt+2] [Oxaliplatin],98.8
7,Cc1ccc(-c2cc(C(F)(F)F)nn2-c2ccc(S(N)(=O)=O)cc2)cc1 [Celecoxib],92.5
8,NCCCNCCSP(=O)(O)O [Amifostine],105
9,C[C@H]1C[C@@H]2[C@H]([C@@H](O)C[C@@]3(C)[C@H]2CC[C@]3(O)C(=O)CO)[C@@]2(C)C=CC(=O)C=C12 [Methylprednisolone],83.3
10,CCc1cncnc1N1CCN(Cc2nc3ccc(C(F)(F)F)cc3[nH]2)CC1,101
11,Oc1ncc(N(CCCl)CCCl)c(O)n1 [Uracil mustard],104
12,CC1=C(/C=C/C(C)=C/C=C/C(C)=C/C(=O)O)C(C)(C)CCC1 [Tretinoin],91.5

# Tested on: HDQ-P1
# Test: as above
# Details: 30 nM; incubation time: 72 h
# Outline: as §1
row,Structure (SMILES),normalised viability [%]
1,COc1cc2c(Oc3ccc4[nH]c(C)cc4c3F)ncnc2cc1OCCCN1CCCC1 [Cediranib],72.9
2,C=CC(=O)N1CCC[C@@H](n2nc(-c3ccc(Oc4ccccc4)cc3)c3c(N)ncnc32)C1,107
3,Cc1cnc(NC(=O)Nc2cc(Br)c(C)cc2OC[C@@H]2CNCCO2)cn1,68.4

# Same assay, conditions: 300 nM; incubation time: 72 h
row,Structure (SMILES),normalised viability [%]
1,Nc1nc(F)nc2c1ncn2[C@@H]1O[C@H](CO)[C@@H](O)[C@@H]1O [Fludarabine],75.3
2,O=C(O)C1(C(=O)O)CCC1.[NH2-].[NH2-].[Pt+2] [Carboplatin],87.6
3,N#Cc1ccc(C(c2ccc(C#N)cc2)n2cncn2)cc1 [Letrozole],69.4
4,C1CN1c1nc(N2CC2)nc(N2CC2)n1 [Triethylenemelamine],105
5,CCCS(=O)(=O)Nc1ccc(F)c(C(=O)c2c[nH]c3ncc(-c4ccc(Cl)cc4)cc23)c1F [Vemurafenib],74.4
6,O=C(O)C(=O)O.[NH-][C@@H]1CCCC[C@H]1[NH-].[Pt+2] [Oxaliplatin],78.4
7,Cc1ccc(-c2cc(C(F)(F)F)nn2-c2ccc(S(N)(=O)=O)cc2)cc1 [Celecoxib],72.2
